Holding throughout (format): biochemical
Assay [1] addresses T1, BlaMab (M. abscessus endogenous class A beta-lactamase) (Mycobacteroides abscessus, UniProt B1MCI3).
T1 construct: gene MAB_2875; -30 residue N-terminal truncated protein, 6x-His tagged
Put plainly: TLC turnover assay with recombinant BlaMab.

The target in assay [2] is T1, BlaMab (M. abscessus endogenous class A beta-lactamase). The assay is described as follows: nitrocefin hydrolysis kinetics (Ki app, k2/Ki, koff) with recombinant BlaMab; TLC penicillin V assay.
Assay [3] has the same target. Put plainly: spectrophotometric hydrolysis at […] nm, Michaelis-Menten (Km across […] relebactam).

T1 sequence (B1MCI3 entry or part of it): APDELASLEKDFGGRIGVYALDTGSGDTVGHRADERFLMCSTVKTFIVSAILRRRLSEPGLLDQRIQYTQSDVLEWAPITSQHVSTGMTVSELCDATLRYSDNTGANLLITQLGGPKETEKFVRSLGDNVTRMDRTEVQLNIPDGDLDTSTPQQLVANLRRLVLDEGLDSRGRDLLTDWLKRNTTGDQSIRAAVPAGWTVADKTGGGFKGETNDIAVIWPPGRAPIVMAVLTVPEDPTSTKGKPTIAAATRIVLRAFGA

On to `CC1(C)S[C@@H]2[C@H](NC(=O)COc3ccccc3)C(=O)N2[C@H]1C(=O)O` [PenV, penicillin V], for which, in assay [1], the “TLC turnover assay with recombinant BlaMab” value is given as “The hydrolysis of penicillin V to penicilloic acid by BlaMab resulted in a spot with reduced Rf value”.

Take `O=C(NC1CCNCC1)[C@@H]1CC[C@@H]2CN1C(=O)N2OS(=O)(=O)O` [REL, relebactam]: the Ki in assay [2] was determined as 184 nM.

For the compound `O=C(Cc1cccs1)N[C@@H]1C(=O)N2C(C(=O)O)=C(/C=C/c3ccc([N+](=O)[O-])cc3[N+](=O)[O-])CS[C@H]12` [nitrocefin], in assay [3], the Km was 69.43–16.96 µM.

(Values after paper PMC6985242, “Effect of Amoxicillin in combination with Imipenem-Relebactam against Mycobacterium abscessus” (Scientific Reports, 2020).)
